Values quoted from earlier work as cited in US20070218480A1, “DETECTION AND DIAGNOSIS OF SMOKING RELATED CANCERS” (THE BOARD OF REGENTS OF THE UNIVERSITY OF TEXAS SYSTEM, priority 2006, published 2007).
Like-named read-outs stand apart in the source and are kept apart here.

Experiments:
[1] = stored at in a dry, airtight, light-resistant environment
[2] = mice

Molecule: COc1cc2ncnc(Nc3ccc(F)c(Cl)c3)c2cc1OCCCN1CCOCC1 [gefitinib]
- objective response (OR) (NSCLC patients; HER2 FISH-negative (no or low gain) NSCLC patients treated with gefitinib): 6.4%
- disease control rate (DCR) (NSCLC patients; HER2 FISH-negative patients): 33.3%
- overall survival (OS) (NSCLC patients; HER2 FISH-negative patients): 8.4 months
- time to progression (TTP) (NSCLC patients; HER2 FISH-negative patients): 2.7 months
- objective response (OR) (NSCLC patients; HER2 FISH-positive (high copy number) NSCLC patients treated with gefitinib): 34.8%
- disease control rate (DCR) (NSCLC patients; HER2 FISH-positive patients): 56.5%
- overall survival (OS) (NSCLC patients; HER2 FISH-positive patients): 20.8 months
- time to progression (TTP) (NSCLC patients; HER2 FISH-positive patients): 9.05 months

Molecule: CC[C@@]1(O)C(=O)OCc2c1cc1n(c2=O)Cc2cc3ccccc3nc2-1 [Camptothecin]
- storage stability [1]: at least two

Molecule: Bleomycin
- tissue distribution [2]: high concentrations of bleomycin are found in the skin, lungs, kidneys, peritoneum, and lymphatics
